# Results reported in ChEMBL document CHEMBL3244027, “Syntheses, analgetic activity, and physical dependence capacity of 5-phenyl-6,7-benzomorphan derivatives” (J Med Chem, 1979).
# Activity calls are given as the source filed them. The calls are words filed in the database; no cut-off is given here.
# What was measured:
# Mus musculus [1] = experiment: Analgetic activity in sc dosed CF1S mouse assessed as writhing by phenylquinone writhing test; assay type: functional; conditions: Mus musculus, CF1S, sc; read-out: ED50
# Mus musculus [2] = experiment: Analgetic activity against CF-1 mouse assessed as increase in reaction time at 40 mg/kg, sc by heat stimulus induced tail flick response assay; assay type: functional, organism-based; parameters: dose 40 mg/kg
# Mus musculus [3] = species: Mus musculus; experiment: Analgetic activity in naloxone challenged mouse assessed as frequency pretreated for 2 day by mouse jumping test; assay type: functional, organism-based
# Mus musculus [4] = experiment: Analgetic activity in po dosed CF1S mouse assessed as writhing by phenylquinone writhing test; assay type: functional; conditions: Mus musculus, CF1S, po; read-out: ED50
# Mus musculus [5] = experiment: Analgetic activity against CF-1 mouse assessed as increase in reaction time at 80 mg/kg, sc by heat stimulus induced tail flick response assay; assay type: functional, organism-based; parameters: dose 80 mg/kg
# Mus musculus [6] = experiment: Analgetic activity against CF-1 mouse assessed as increase in reaction time at 320 mg/kg, sc by heat stimulus induced tail flick response assay; assay type: functional, organism-based; parameters: dose 320 mg/kg
# Mus musculus [7] = experiment: Analgetic activity against CF-1 mouse assessed as increase in reaction time at 160 mg/kg, po by heat stimulus induced tail flick response assay; assay type: functional, organism-based; parameters: dose 160 mg/kg
# Mus musculus [8] = experiment: Analgetic activity against CF-1 mouse assessed as increase in reaction time at 320 mg/kg, po by heat stimulus induced tail flick response assay; assay type: functional, organism-based; parameters: dose 320 mg/kg
# Mus musculus [9] = experiment: Analgetic activity against CF-1 mouse assessed as increase in reaction time at 160 mg/kg, sc by heat stimulus induced tail flick response assay; assay type: functional, organism-based; parameters: dose 160 mg/kg
# Mus musculus [10] = experiment: Analgetic activity against CF-1 mouse assessed as increase in reaction time at 20 mg/kg, sc by heat stimulus induced tail flick response assay; assay type: functional, organism-based; parameters: dose 20 mg/kg
smiles,measurement,setting,value
Br.CN1CCC(c2ccccc2)=CC1Cc1ccccc1 (stereo unspecified),ED50,Mus musculus [1],6.6 mg/kg
same,Activity,Mus musculus [2],Active
same,Activity,Mus musculus [3],inactive
same,ED50,Mus musculus [4],37 mg/kg
CC(=O)Oc1ccc2c(c1)C1(c3ccccc3)CCN(C)C(C2)C1 (racemic),ED50,Mus musculus [1],9.4 mg/kg
same,Activity,Mus musculus [5],inactive
same,Activity,Mus musculus [3],inactive
Oc1ccc2c(c1)C1(c3ccccc3)CCNC(C2)C1 (racemic),Activity,Mus musculus [6],inactive
same,Activity,Mus musculus [7],inactive
CC1C2Cc3ccc(O)cc3C1(c1ccccc1)CCN2CCc1ccc([N+](=O)[O-])cc1.Cl (stereo unspecified),Activity,Mus musculus [8],inactive
same,Activity,Mus musculus [6],inactive
same,ED50,Mus musculus [4],> 100 mg/kg
Br.CC1=C(c2ccccc2)CCN(C)C1Cc1ccccc1 (stereo unspecified),ED50,Mus musculus [1],45 mg/kg
same,Activity,Mus musculus [9],Active
c1ccc(CCN2CCC3(c4ccccc4)CC2Cc2ccccc23)cc1 (stereo unspecified),Activity,Mus musculus [9],inactive
Oc1ccc2c(c1)C1(c3ccccc3)CCN(CC3CCC3)C(C2)C1 (stereo in doubt; 145),Activity,Mus musculus [3],inactive
COc1ccc(CC2C=C(c3ccccc3)CCN2C)cc1 (stereo unspecified),Activity,Mus musculus [5],Active
same,Activity,Mus musculus [3],inactive
CC1C2Cc3ccc(O)cc3C1(c1ccccc1)CCN2CCC(=O)c1ccccc1 (stereo unspecified),Activity,Mus musculus [7],Active
CC1C2Cc3ccc(O)cc3C1(c1ccccc1)CCN2CCO (stereo unspecified),Activity,Mus musculus [5],inactive
CN1CCC2(c3ccc(Cl)cc3)CC1Cc1ccccc12 (racemic),Activity,Mus musculus [5],Active
same,Activity,Mus musculus [7],Active
CC1C2Cc3ccc(O)cc3C1(c1ccccc1)CCN2CC12CC3CC(CC(C3)C1)C2.Cl (stereo unspecified),Activity,Mus musculus [8],inactive
same,ED50,Mus musculus [4],> 100 mg/kg
c1ccc(C23CCNC(Cc4ccccc42)C3)cc1 (racemic),Activity,Mus musculus [5],Active
Br.Clc1ccc(C23CCN(CCc4ccccc4)C(Cc4ccccc42)C3)cc1 (racemic),Activity,Mus musculus [8],inactive
same,ED50,Mus musculus [1],> 100 mg/kg
CC1C2Cc3ccc(O)cc3C1(c1ccccc1)CCN2CCO (racemic),Activity,Mus musculus [8],inactive
same,Activity,Mus musculus [9],inactive
CC1C2Cc3ccc(O)cc3C1(c1ccccc1)CCN2 (stereo in doubt; 110),Activity,Mus musculus [8],inactive
same,Activity,Mus musculus [6],inactive
CN1CCC2(c3ccccc3)CC1Cc1cc(O)c(O)cc12 (racemic),Activity,Mus musculus [6],inactive
C[C@@H]1C2Cc3ccc(O)cc3C1(c1ccccc1)CCN2CCC(O)(c1ccccc1)c1ccccc1 (stereo partly specified),Activity,Mus musculus [8],inactive
same,ED50,Mus musculus [1],> 100 mg/kg
c1ccc(C23CCNC(Cc4ccccc42)C3)cc1 (stereo unspecified),Activity,Mus musculus [9],Active
CCCCCCCCCCN1CCC2(c3ccccc3)c3cc(O)ccc3CC1C2C.Cl (stereo unspecified),Activity,Mus musculus [8],inactive
same,ED50,Mus musculus [1],70 mg/kg
same,ED50,Mus musculus [4],> 100 mg/kg
Br.Oc1ccc2c(c1)C1(c3ccccc3)CCN(CCN3CCOCC3)C(C2)C1 (racemic),Activity,Mus musculus [8],inactive
same,ED50,Mus musculus [1],> 100 mg/kg
CC1C2Cc3ccc(O)cc3C1(c1ccccc1)CCN2CC1CCC1 (stereo in doubt; 219),Activity,Mus musculus [3],inactive
CC1=C(c2ccccc2)CCN(C)C1Cc1ccc(O)cc1 (stereo unspecified),ED50,Mus musculus [1],5 mg/kg
same,Activity,Mus musculus [3],inactive
same,Activity,Mus musculus [9],Active
CCCN1CCC2(c3ccccc3)c3cc(O)ccc3CC1C2C (stereo in doubt; 173),Activity,Mus musculus [6],inactive
CC1C2Cc3ccc(O)cc3C1(c1ccccc1)CCN2CC(c1ccccc1)c1ccccc1 (stereo unspecified),Activity,Mus musculus [7],inactive
CC(C)=CCN1CCC2(c3ccccc3)c3cc(O)ccc3CC1C2C (stereo in doubt; 207),Activity,Mus musculus [3],inactive
CC(O)C(=O)O.CC1C2Cc3ccc(O)cc3C1(c1ccccc1)CCN2C/C=C/c1cccs1 (stereo unspecified),Activity,Mus musculus [8],inactive
same,ED50,Mus musculus [4],> 100 mg/kg
CC1C2Cc3ccc(O)cc3C1(c1ccccc1)CCN2C(=O)C1CC1 (stereo unspecified),Activity,Mus musculus [8],inactive
same,ED50,Mus musculus [1],> 100 mg/kg
CCOC(=O)CCN1CCC2(c3ccccc3)CC1Cc1ccc(O)cc12 (racemic),ED50,Mus musculus [1],78 mg/kg
same,Activity,Mus musculus [6],inactive
same,ED50,Mus musculus [4],> 100 mg/kg
CN1CCC2(c3ccc(O)cc3)CC1Cc1ccc(O)cc12 (racemic),Activity,Mus musculus [8],inactive
CN1CCC(c2ccccc2)=CC1Cc1ccc(F)cc1 (stereo unspecified),Activity,Mus musculus [5],Active
CC(=O)Oc1ccc2c(c1)C1(c3ccccc3)CCN(CC=C(C)C)C(C2)C1C (stereo unspecified),Activity,Mus musculus [6],inactive
C=CCN1CCC2(c3ccccc3)CC1Cc1ccc(O)cc12 (stereo in doubt; 146),Activity,Mus musculus [8],inactive
CN1CCC(c2ccccc2)=CC1Cc1ccc(O)cc1 (stereo unspecified),ED50,Mus musculus [1],1.5 mg/kg
same,Activity,Mus musculus [3],inactive
same,ED50,Mus musculus [4],27 mg/kg
same,Activity,Mus musculus [10],Active
C/C(Cl)=C/CN1CCC2(c3ccccc3)c3cc(O)ccc3CC1C2C (racemic),ED50,Mus musculus [1],> 100 mg/kg
same,Activity,Mus musculus [9],inactive
Oc1ccc2c(c1)C1(c3ccccc3)CCN(CCc3ccccc3)C(C2)C1 (racemic),Activity,Mus musculus [2],Active
CN1CCC2(c3ccccc3)CC1Cc1cc(O)c(O)c(O)c12 (racemic),Activity,Mus musculus [7],inactive
Cc1ccc(S(=O)(=O)Oc2ccc3c(c2)C2(c4ccccc4)CCN(C)C(C3)C2)cc1 (racemic),Activity,Mus musculus [5],inactive
CCC1=C(c2ccccc2)CCN(C)C1Cc1ccc(O)cc1 (stereo unspecified),Activity,Mus musculus [5],Active
same,Activity,Mus musculus [3],inactive
CCOC(=O)N1CCC2(c3ccccc3)CC1Cc1ccc(OC(C)=O)cc12 (racemic),Activity,Mus musculus [8],inactive
same,ED50,Mus musculus [4],> 100 mg/kg
CN1CCC2(c3ccccc3)CC1Cc1ccc(O)cc12 (racemic),Activity,Mus musculus [10],Active
CCOC(=O)CN1CCC2(c3ccccc3)c3cc(O)ccc3CC1C2C (stereo unspecified),Activity,Mus musculus [6],inactive
CC1C2Cc3ccc(O)cc3C1(c1ccccc1)CCN2C/C=C/Cl (stereo unspecified),Activity,Mus musculus [8],inactive
same,ED50,Mus musculus [1],> 100 mg/kg
Oc1ccc2c(c1)C1(c3ccc(Cl)cc3)CCNC(C2)C1 (racemic),Activity,Mus musculus [6],inactive
C=C(Br)CN1CCC2(c3ccccc3)c3cc(O)ccc3CC1C2C.Cl (stereo unspecified),ED50,Mus musculus [1],> 100 mg/kg
same,Activity,Mus musculus [2],inactive
same,Activity,Mus musculus [3],inactive
CN1CCC2(c3ccccc3)CC1Cc1ccccc12 (stereo in doubt; 37),Activity,Mus musculus [6],inactive
Br.CN1CCC2(c3ccccc3)CC1Cc1ccc(F)cc12 (racemic),Activity,Mus musculus [5],inactive
same,ED50,Mus musculus [4],33 mg/kg
CCCCCN1CCC2(c3ccccc3)CC1Cc1ccc(O)cc12.Cl (racemic),Activity,Mus musculus [8],inactive
same,ED50,Mus musculus [1],23 mg/kg
Oc1ccc2c(c1)C1(c3ccccc3)CCN(CCc3cccs3)C(C2)C1 (racemic),Activity,Mus musculus [8],inactive
Oc1ccc2c(c1)C1(c3ccccc3)CCN(C/C=C/c3ccccc3)C(C2)C1 (racemic),Activity,Mus musculus [8],Active
CC1C2Cc3ccc(O)cc3C1(c1ccccc1)CCN2CCC(C#N)(c1ccccc1)c1ccccc1 (stereo in doubt; 167),Activity,Mus musculus [8],inactive
COc1ccc2c(c1)C1(c3ccccc3)CCN(CC=C(C)C)C(C2)C1C (stereo unspecified),ED50,Mus musculus [1],> 100 mg/kg
same,Activity,Mus musculus [6],inactive
CCC1C2Cc3ccc(O)cc3C1(c1ccccc1)CCN2C (racemic),Activity,Mus musculus [10],Active
COc1ccc2c(c1)C1(c3ccccc3)CCNC(C2)C1.Cl (stereo unspecified),ED50,Mus musculus [1],100 mg/kg
same,Activity,Mus musculus [6],inactive
CC1C2Cc3ccc(O)cc3C1(c1ccccc1)CCN2CCN1CCOCC1 (stereo unspecified),Activity,Mus musculus [8],inactive
same,ED50,Mus musculus [1],> 100 mg/kg
same,ED50,Mus musculus [4],> 100 mg/kg
Oc1ccc2c(c1)C1(c3ccccc3)CCN(C/C=C/Cl)C(C2)C1 (racemic),ED50,Mus musculus [1],> 100 mg/kg
same,Activity,Mus musculus [3],inactive
CN(C)C(=S)Oc1ccc2c(c1)C1(c3ccccc3)CCN(C)C(C2)C1 (racemic),Activity,Mus musculus [8],inactive
same,Activity,Mus musculus [2],inactive
c1ccc(CCN2CCC3(c4ccccc4)CC2Cc2ccccc23)cc1 (racemic),Activity,Mus musculus [7],Active
Oc1ccc2c(c1)C1(c3ccccc3)CCN(CCCc3ccccc3)C(C2)C1 (racemic),Activity,Mus musculus [7],Active
same,ED50,Mus musculus [4],> 100 mg/kg
OCCN1CCC2(c3ccccc3)CC1Cc1ccc(O)cc12 (racemic),ED50,Mus musculus [1],> 100 mg/kg
same,Activity,Mus musculus [6],inactive
CCOC(=O)C(C)N1CCC2(c3ccccc3)c3cc(O)ccc3CC1C2C (stereo unspecified),ED50,Mus musculus [1],> 100 mg/kg
same,Activity,Mus musculus [6],inactive
O=[N+]([O-])c1ccc(CCN2CCC3(c4ccccc4)CC2Cc2ccc(O)cc23)cc1 (racemic),Activity,Mus musculus [6],inactive
CC1C2Cc3ccc(O)cc3C1(c1ccccc1)CCN2Cc1ccco1 (stereo unspecified),Activity,Mus musculus [6],inactive
COc1ccc(CC2C=C(c3ccccc3)CCN2C)cc1OC (stereo unspecified),Activity,Mus musculus [2],Active
C#CCN1CCC2(c3ccccc3)c3cc(O)ccc3CC1C2C (stereo unspecified),Activity,Mus musculus [3],inactive
C/C(Cl)=C\CN1CCC2(c3ccccc3)c3cc(O)ccc3CC1C2C (stereo unspecified),ED50,Mus musculus [1],> 100 mg/kg
same,Activity,Mus musculus [5],inactive
CN1CCC2(c3ccc(Cl)cc3)CC1Cc1ccc(O)cc12 (racemic),Activity,Mus musculus [2],Active
C[C@@H]1C2Cc3ccc(O)cc3C1(c1ccccc1)CCN2CCC(C)(C)O (stereo partly specified),ED50,Mus musculus [1],78 mg/kg
same,Activity,Mus musculus [6],inactive
Oc1ccc2c(c1)C1(c3ccccc3)CCNC(C2)C1 (stereo unspecified),Activity,Mus musculus [8],inactive
CN(C)CCCN1CCC2(c3ccccc3)CC1Cc1ccc(O)cc12 (racemic),Activity,Mus musculus [6],inactive
CC(C)CCN1CCC2(c3ccccc3)c3cc(O)ccc3CC1[C@H]2C (stereo partly specified),Activity,Mus musculus [7],Active
C[C@@H]1C2Cc3ccc(O)cc3C1(c1ccccc1)CCN2C (mixture of isomers),Activity,Mus musculus [9],Active
Br.CCN1CCC2(c3ccccc3)CC1Cc1ccccc12 (racemic),ED50,Mus musculus [1],16 mg/kg
same,Activity,Mus musculus [6],inactive
Oc1ccc2c(c1)C1(c3ccccc3)CCN(CCCCc3ccccc3)C(C2)C1 (racemic),Activity,Mus musculus [8],inactive
same,ED50,Mus musculus [4],> 100 mg/kg
CN1CCC2(c3ccccc3)CC1Cc1ccc(O)cc12 (stereo in doubt; 42),Activity,Mus musculus [5],inactive
CC1C2Cc3ccc(OC(=O)C(c4ccccc4)c4ccccc4)cc3C1(c1ccccc1)CCN2C(=O)C(c1ccccc1)c1ccccc1.O (stereo unspecified),Activity,Mus musculus [8],inactive
same,ED50,Mus musculus [1],> 100 mg/kg
